We go through 12 compounds from PubChem BioAssay (NCI).

Holding throughout (test): NCI anticancer screen, dose series, 48 h
In experiment [1] the test system is ACHN renal.
The test system of experiment [2] is HOP-62 NSCLC.
Experiment [3] relates to HOP-92 NSCLC.
The test system of experiment [4] is MDA-N.
The subject of experiment [5] is OVCAR-5 ovarian.
Experiment [6] has as its system RXF 393 renal.
Experiment [7] relates to UO-31 renal.
Experiment [8] concerns 786-0 renal.
Experiment [9] deals with K-562 leukemia.
Experiment [10] has as its system MDA-MB-231 breast.
The subject of experiment [11] is NCI/ADR-RES ovarian.

Structures are written as SMILES.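 Assay format: 96-well plates, 48-hour exposure. Abbreviation: GI50, concentration required for 50% inhibition of growth. The concentration for full growth arrest is given as TGI.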

Consider `COC1/C=C/C(C)C(O)CC(O)/C=C/C(C)C(C(C)C(OC)C(C)CCC(=O)C(C)C(C/C=C/N(C)C=O)OC)OC(=O)/C=C/C=C(\C)CC(OC)CC2=CC(=O)O[C@@H](C(C)C(OC)C1)[C@H]2O` (stereo partly drawn), for which the TGI in [1] is 0.13 µM; in [2], 0.0257 µM; in experiment [3], 0.0106 µM; in experiment [4] it was 0.136 µM; in experiment [5], 0.228 µM; in experiment [6], 0.0112 µM. This compound also came in with a TGI in [7] of 0.0648 µM.
Consider `Cc1nc(NC(C)(CO)CO)nc(N/N=C/c2ccc(Cl)cc2)c1C(=O)Nc1ccc(Cl)cc1`, for which the TGI in [8], in experiment [1], in experiment [2], in experiment [9], in experiment [10] and in experiment [4] was > 100 µM throughout. Moreover, the TGI in experiment [11], in [5], in experiment [6] and in experiment [7] was > 100 µM each time.
Turning to `C=C1c2nc3ccccc3n2C=C(c2ccc(C)cc2)N1c1ccc(OC)cc1`, the TGI in [8], in experiment [1], in experiment [2], in [3], in [9] and in experiment [10] was > 100 µM each time. The TGI was > 94.8 µM in experiment [11], > 100 µM in experiment [5], > 100 µM in [6] and > 100 µM in experiment [7].
Turning to `CCOC(=O)NC(=S)N(CC(=O)c1cc(OC)c(OC)c(OC)c1)c1ccc(Cl)cc1`, the GI50 was > 100 µM in experiment [1]; > 100 µM in experiment [2]; 38.9 µM in experiment [3]; 51.8 µM in experiment [9]; 45.9 µM in experiment [10]; 56.5 µM in [11]. Moreover, the GI50 in experiment [6] is 17.2 µM; in [7], 48.9 µM. In addition, the TGI in [1], in experiment [2], in experiment [3], in experiment [9], in [10] and in [11] was > 100 µM throughout. The TGI was 89.7 µM in experiment [6] and > 100 µM in experiment [7].
Turning to `N#Cc1c(-c2ccc([N+](=O)[O-])cc2)c(C#N)c(=O)n(NS(=O)(=O)c2ccccc2)c1S`, the TGI in experiment [8] was > 100 µM; in experiment [1], > 100 µM; in experiment [2] it was > 100 µM; in experiment [3], > 100 µM; in [9] it was 77.4 µM; in [10], 44.7 µM. Further, the TGI in [11], in experiment [5] and in experiment [6] was > 100 µM each time.
`Nc1c(C(=O)c2ccc(Cl)c(Cl)c2)[nH]c(NCc2ccccc2)c1C(=S)Nc1ccccc1`: the TGI in experiment [8] was 27.9 µM; in experiment [1], 28.1 µM; in [2], 34.7 µM; in experiment [9], > 100 µM; in [10], 17.6 µM; in [4], 14.5 µM. Also, the TGI in [11] is 4.72 µM; in experiment [5] it was 28.2 µM; in experiment [6], 27.3 µM; in [7] it was 21.6 µM.
For `CC(=O)C(=Cc1cn(C)c(=O)n(C)c1=O)C(C)=O`, the TGI amounted to 400 µM in experiment [2]; 8.16 µM in [3]; 465 µM in experiment [9]; 286 µM in experiment [11]; 235 µM in [5]; 148 µM in experiment [6]. The TGI in experiment [7] is 175 µM.
Turning to `CCOP(=O)(/C=C/n1cc(C)c(=O)[nH]c1=O)OCC`, the TGI in [8], in [1], in [2], in experiment [9], in [10] and in [4] was > 100 µM in each case. Further, the TGI in [11], in experiment [5] and in experiment [6] was > 100 µM each time.
As to `CC1=C(C)C(=O)C(C2=CC(=O)c3ccccc3C2=O)=C(C2=CC(=O)c3ccccc3C2=O)C1=O`, the TGI in experiment [8] was > 58.1 µM; in experiment [1] it was 14.9 µM; in [2], 33.4 µM; in experiment [3], > 83.3 µM; in experiment [10], 13.4 µM; in experiment [11], > 100 µM. In addition, the TGI was > 100 µM in experiment [5], 22.4 µM in experiment [6] and 25.4 µM in experiment [7].
Regarding `O=C1c2cc3c(cc2-c2c1c1cc(F)c(F)cc1c(=O)n2CCCn1ccnc1)OCO3`, the GI50 in experiment [1] is < 0.01 µM; in experiment [2] it was < 0.01 µM; in experiment [9], 0.0441 µM; in [10] it was 0.311 µM; in experiment [5], 0.0832 µM; in experiment [6], 0.036 µM. Moreover, the GI50 in [7] was 0.0465 µM. The TGI in experiment [1] is 0.134 µM; in [2], 0.0477 µM; in experiment [9], > 100 µM; in experiment [10] it was > 100 µM; in experiment [5] it was > 100 µM; in experiment [6] it was 0.169 µM. In addition, in experiment [7], the TGI turned out to be 0.814 µM.
For `O=c1c2cc(Br)cc(Br)c2[nH]c(=S)n1-c1ccc(N=Nc2ccc(O)c3cccnc23)cc1`, the TGI was > 100 µM in experiment [8]; > 100 µM in experiment [1]; > 100 µM in experiment [2]; 41.6 µM in experiment [3]; > 100 µM in experiment [9]; > 100 µM in [10]. Moreover, the TGI in [4], in experiment [5], in experiment [6] and in experiment [7] was > 100 µM throughout.
On to `C[s+]1c2ccccc2c2ccccc21`, for which the TGI in experiment [8], in experiment [1], in experiment [2], in experiment [9], in [5] and in experiment [6] was > 100 µM throughout. For the same compound, the TGI in experiment [7] was > 100 µM.
